# Source: article PMC4111603 (PLoS ONE, 2014)
# Like-named read-outs stand apart in the source and are kept apart here.
# Columns and labels:
# Type in all cases: biochemical
# human recombinant COX-2 [1] = molecular target: T1, human recombinant COX-2 (Homo sapiens, UniProt P35354); test: COX-2 oxygenation of 2-AG, oxygen electrode; conditions: for COX-2 activity (% of control): substrate 2-AG 10 µM, initial activity 10-30 s, n = 3
# T1 construct: purchased Cayman Chemical Co. 60122
# T1 sequence (P35354 18-604): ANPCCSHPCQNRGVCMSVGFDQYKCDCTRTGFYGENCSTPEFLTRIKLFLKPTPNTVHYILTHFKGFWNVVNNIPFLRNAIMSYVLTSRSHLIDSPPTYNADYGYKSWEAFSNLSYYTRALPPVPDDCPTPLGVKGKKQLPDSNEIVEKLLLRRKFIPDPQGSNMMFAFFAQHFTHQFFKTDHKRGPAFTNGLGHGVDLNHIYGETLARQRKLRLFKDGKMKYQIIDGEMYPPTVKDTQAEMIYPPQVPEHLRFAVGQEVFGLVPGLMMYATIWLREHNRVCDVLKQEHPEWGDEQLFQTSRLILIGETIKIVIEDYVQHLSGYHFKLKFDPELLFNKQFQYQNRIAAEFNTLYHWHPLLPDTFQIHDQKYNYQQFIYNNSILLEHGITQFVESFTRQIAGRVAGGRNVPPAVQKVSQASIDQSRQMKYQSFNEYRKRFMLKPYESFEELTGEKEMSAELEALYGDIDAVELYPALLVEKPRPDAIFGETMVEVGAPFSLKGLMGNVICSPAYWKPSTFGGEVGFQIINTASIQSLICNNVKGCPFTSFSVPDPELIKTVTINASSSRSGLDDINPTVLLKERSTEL
# Protocol: (§1) The assay was performed according to Meade et al. with minor modifications using an oxygen electrode chamber with integral stirring (Oxygraph System, Hansatech Instruments, King’s Lynn, U.K.). The electrode was calibrated to ambient temperature and air pressure. Samples were prepared in 0.1 M Tris-HCl buffer pH 7.4 containing 1 µM haematin, 2 mM phenol, 5 mM EDTA, 10 µM substrate (AA or 2-AG) (final assay volume was 2 ml). After addition of test substance dissolved in DMSO (final assay concentration 1%) a baseline was established for 5 min before initiation of reaction by addition of 200 units COX-1 or COX-2. Change in oxygen consumption was monitored for approximately 5 min.
# (§2) FAAH inhibition was calculated using log(inhibitor) vs. response with variable slope (four parameters) algorithm in the GraphPad Prism computer program (GraphPad Software Inc., San Diego, CA. USA). […] The two curves were compared by Akaike’s informative criteria and the best fit was chosen. Initial COX activities were calculated as the change in oxygen tension between 10 and 30 seconds after addition of enzyme.
# rat brain FAAH = molecular target: T2, rat brain FAAH (Rattus norvegicus, UniProt P97612); test: FAAH hydrolysis of [3H]AEA in rat brain homogenates; conditions: 0.5 µM AEA
# T2 construct: FAAH activity was quantified by measuring hydrolysis of tritium labelled AEA in rat brain homogenates; from tissue; host or cells: rat brain (minus cerebella), Wistar or Sprague-Dawley, washed membrane pellets
# T2 sequence (P97612 1-579): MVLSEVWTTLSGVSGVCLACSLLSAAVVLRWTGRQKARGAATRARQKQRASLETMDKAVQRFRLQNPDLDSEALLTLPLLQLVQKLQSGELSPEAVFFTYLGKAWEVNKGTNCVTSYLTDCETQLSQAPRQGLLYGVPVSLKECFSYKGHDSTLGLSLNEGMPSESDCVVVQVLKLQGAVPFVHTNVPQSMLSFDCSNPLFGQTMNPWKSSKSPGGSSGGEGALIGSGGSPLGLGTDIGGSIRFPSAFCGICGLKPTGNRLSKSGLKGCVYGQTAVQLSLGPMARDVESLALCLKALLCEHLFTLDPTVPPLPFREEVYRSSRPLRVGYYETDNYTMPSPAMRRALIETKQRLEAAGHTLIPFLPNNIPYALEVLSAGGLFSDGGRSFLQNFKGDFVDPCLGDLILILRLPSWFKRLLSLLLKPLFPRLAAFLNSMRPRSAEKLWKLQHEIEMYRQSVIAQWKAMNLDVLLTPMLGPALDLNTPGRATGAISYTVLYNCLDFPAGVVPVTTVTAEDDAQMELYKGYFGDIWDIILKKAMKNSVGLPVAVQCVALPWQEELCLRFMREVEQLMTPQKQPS
# Protocol: Brains (minus cerebella) from adult Wistar or Sprague-Dawley stored at −80°C were thawed, weighed and homogenized in cold buffer (20 mM HEPES, 1 mM MgCl2 pH 7.0). Homogenates were centrifuged at 35,000 g at 4°C for 20 min and the pellet was resuspended in homogenization buffer (repeated twice) before being incubated at 37°C for 15 min to degrade any endogenous substrate that might interfere with the FAAH assay. Following centrifugation, the pellets were resuspended in cold buffer (50 mM Tris-HCl, 1 mM EDTA, 3 mM MgCl2, pH 7.4). The protein concentration of each homogenates was determined according to the Bradford assay after which the samples were frozen in aliquots at −80°C until used for FAAH assay. Ethical permission for the animal experiments was obtained from the local animal research ethical committee (Umeå Ethical Committee for Animal Research, Umeå, Sweden).
# The assay was performed according to Boldrup et al.. Homogenates (1 µg protein per assay) diluted in 10 mM Tris-HCl, 1 mM EDTA, pH 7.4 or pH 5.1 were mixed with test substance dissolved in DMSO (total concentration in assay 5%) at an ambient temperature of 4°C. Reactions were initiated by addition of AEA-[^3H] (assay concentration 0.5 µM) in 10 mM Tris-HCl, 1 mM EDTA, pH 7.4 containing 10 mg ml^−1 fatty acid-free bovine serum and incubation at 37°C which was allowed to proceed for 10 min. […] Blank samples contained buffer instead of homogenate and DMSO (5%). The assay volume of each sample was 200 µl. The pH values given in the text were determined by measurement at 37°C of scaled-up mixtures of homogenization and assay buffers. The reaction was terminated by addition of 400 µl activated charcoal (80 µl activated charcoal +320 µl 0.5 M HCl) and placement of samples on ice. Samples were kept in room temperature for 45–60 min before being centrifuged at 2500 rpm for 10 min. Aliquots (200 µl) of the supernatant was analyzed for tritium content by liquid scintillation with quench correction.
# as §2
# human recombinant COX-2 [2] = molecular target: T1, human recombinant COX-2; test: COX-2 oxygenation of arachidonic acid, oxygen electrode; conditions: for COX-2 activity (% of control): substrate AA 10 µM, initial activity 10-30 s, n = 3
# Protocol: as §1, §2
# [3] = pH 6.0, read-out: IC50, inhibition of [3H]AEA hydrolysis (converted)
# [4] = pH 6.0, read-out: pI50, inhibition of [3H]AEA hydrolysis (converted)
# [5] = pH 7.3, read-out: IC50, inhibition of [3H]AEA hydrolysis (converted)
# [6] = pH 7.3, read-out: pI50, inhibition of [3H]AEA hydrolysis (converted)
Compound,COX-2 activity (% of control) (human recombinant COX-2 [1]; 30 µM NSAID),inhibition of cyclooxygenation of 2-AG (human recombinant COX-2 [1]; 30 µM compound),COX-2 activity (% of control) (human recombinant COX-2 [1]; 100 µM NSAID),inhibition of cyclooxygenation of 2-AG (human recombinant COX-2 [1]; 100 µM compound),COX-2 activity (% of control) (human recombinant COX-2 [1]; 300 µM NSAID),inhibition of cyclooxygenation of 2-AG (human recombinant COX-2 [1]; 300 µM compound),IC50 (rat brain FAAH; [3]),IC50 (rat brain FAAH; [4]),IC50 (rat brain FAAH; [5]),IC50 (rat brain FAAH; [6]),inhibition of COX-2-catalysed oxygenation of arachidonic acid (result in words) (human recombinant COX-2 [2]),COX-2 activity (% of control) (human recombinant COX-2 [2]; 30 µM NSAID),COX-2 activity (% of control) (human recombinant COX-2 [2]; 100 µM NSAID),COX-2 activity (% of control) (human recombinant COX-2 [2]; 300 µM NSAID),"inhibition of COX-2-catalysed oxygenation of 2-AG at longer incubation times (human recombinant COX-2 [1]; lower potency than the parent compound, initial inhibition (10-30 s) only modestly affected)","inhibition at 1000 µM (rat brain FAAH; read-out: % inhibition of [3H]AEA hydrolysis @ 1000 µM, pH 7.3, 1000 µM compound)"
CC(C(=O)O)c1ccc(-c2ccc(O)cc2)c(F)c1 (stereo not drawn) [4′-OH-Flurbiprofen],39±11 % of control,partially,24±4 % of control,partially,−6±9 % of control,completely,84 µM,85.1 µM,310 µM,316 µM,failed to inhibit,88±16 % of control,106±16 % of control,106±9 % of control,–,–
"CC(CO)Cc1ccc(C(C)C(=O)O)cc1 (stereo not drawn) [3′-OH-Ibuprofen, 2-[4-(3-hydroxy-2-methylpropyl)phenyl]propionic acid]",–,–,73±14 % of control,–,91±2 % of control,–,200 µM,200 µM,990 µM,977 µM,–,–,103±21 % of control,84±10 % of control,retained the ability of ibuprofen to inhibit,–
"CC(C(=O)O)c1ccc(CC(C)(C)O)cc1 (stereo not drawn) [2′-OH-Ibuprofen, 2-[4-(2-hydroxy-2-methylpropyl)phenyl]propionic acid]",–,–,125±24 % of control,–,115±21 % of control,–,380 µM,380 µM,–,–,–,–,98±17 % of control,83±12 % of control,–,15 ± 7%
